Here are results for 36 compounds from patent US8674113B2, “Compounds” (Boehringer Ingelheim International GmbH, priority 2010, dated 2014).

Where two headings read alike, the source gives them in different places. Some results are limits rather than exact numbers.

For assay [1], the target named is recombinant human mPGES-1 (Homo sapiens (Human), UniProt O14684). The assay can be described thus: mPGES-1 enzyme assay (HTRF detection of PGE2). The format is biochemical. The method, boiled down:
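Microsomes from E. coli expressing recombinant human mPGES-1 (~0.5 μg protein/well) in 0.1 M phosphate pH 7.4 with 2.5 mM GSH, pre-incubated with compound 25 min at room temperature. PGH2 (2 μM final) added, reaction stopped with FeCl2 after 60 s; PGE2 quantified by HTRF (665/620 ratio) against a calibration curve, IC50 by nonlinear regression after background subtraction.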

For assay [2], the target named is mPGES-1 in A549 cells (Homo sapiens (Human), UniProt O14684). Description: A549 cell-based assay (PGE2 formation, 50% human serum). Put shortly: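 PGE2 release, read by HTRF and set to 100% for vehicle, gave IC50s from 6-8 point titrations. Human A549 cells were exposed to compound for 20-24 h in medium with 50% human serum, with IL-1β (5 ng/ml) and arachidonic acid (10 nM) as stimulus.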

Where [3] appears, read: recombinant human mPGES-1 microsomes, PGH2 2 μM, 60 seconds, read-out: mPGES-1 inhibitory effect IC50 in the enzyme assay.
Setting [4] is: IL-1β 5 ng/ml, 10 nM arachidonic acid, 20-24 h, read-out: mPGES-1 inhibitory effect IC50 in the cell assay.
[5] abbreviates: Table C comparison of selected benzimidazoles, read-out: Enzym IC50.
[6] abbreviates: Table C comparison of selected benzimidazoles, read-out: Cell IC50.

Sequence of mPGES-1 in A549 cells (O14684 whole entry): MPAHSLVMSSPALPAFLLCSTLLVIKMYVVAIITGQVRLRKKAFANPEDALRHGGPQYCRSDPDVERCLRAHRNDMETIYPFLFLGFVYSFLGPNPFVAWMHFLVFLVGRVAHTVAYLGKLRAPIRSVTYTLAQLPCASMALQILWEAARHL
Sequence of recombinant human mPGES-1 (O14684 whole entry): as above

A word on the IC50: it is the concentration that gives 50% inhibition. On to `Cn1c(Nc2c(Cl)ccc(CNC(=O)c3cccc(O)c3)c2Cl)nc2cc(C(=O)NCCC(F)(F)F)c(N3CCC(C(F)(F)F)CC3)cc21` [Example 178], for which the IC50 in assay [1] (setting [3]) was 5 nM; in assay [2] (setting [4]), 28 nM.
Turning to `Cn1c(Nc2c(Cl)ccc(CNC(=O)c3c(O)cccc3F)c2Cl)nc2cc(C(=O)NCCC(F)(F)F)c(N3CCC(C(F)(F)F)CC3)cc21` [Example 179], the IC50 in assay [1] (setting [3]) was 2 nM; in assay [2] (setting [4]), above 100 nM.
On the same counts, the results for `Cn1c(Nc2c(Cl)ccc(CNC(=O)c3nccs3)c2Cl)nc2cc(C(=O)NCCC(F)(F)F)c(N3CCC(C(F)(F)F)CC3)cc21` [Example 182] are 2 nM and 7 nM.
On the same counts, the results for `Cn1c(Nc2c(Cl)ccc(CNC(=O)C(C)(C)F)c2Cl)nc2cc(C(=O)Nc3ccc(F)c(Cl)c3)c(N3CCC(C(F)(F)F)CC3)cc21` [Example 231, N-(3-Chloro-4-fluoro-phenyl)-2-{2,6-dichloro-3-[(2-fluoro-2-methyl-propionylamino)-methyl]-phenylamino}-6-[4-trifluoromethyl-piperidinyl]-1-methyl-1H-benzimidazole-5-carboxylic acid amide] are 2 nM and 1.1 nM.
The matching figures for `Cn1c(Nc2c(Cl)ccc(CNC(=O)C(C)(C)C(F)(F)F)c2Cl)nc2cc(C(=O)Nc3ccc(F)c(Cl)c3)c(N3CCC(C(F)(F)F)CC3)cc21` [Example 232]: 1.7 nM and 1.4 nM.
In the case of `Cn1c(Nc2c(Cl)ccc(CNC(=O)[C@@](C)(O)C(F)(F)F)c2Cl)nc2cc(C(=O)Nc3ccc(F)c(Cl)c3)c(N3CCC(C(F)(F)F)CC3)cc21` [Example 233], the values for the IC50 in assay [1] (setting [3]) and in assay [2] (setting [4]) were 3.9 nM and 1 nM, respectively.
On the same counts, the results for `Cn1c(Nc2c(Cl)ccc(CNC(=O)[C@](C)(O)C(F)(F)F)c2Cl)nc2cc(C(=O)Nc3ccc(F)c(Cl)c3)c(N3CCC(C(F)(F)F)CC3)cc21` [Example 234] are 3.1 nM and 8 nM.
As to `Cn1c(Nc2c(Cl)ccc(CNC(=O)C(C)(C)F)c2Cl)nc2cc(C(=O)Nc3ccc(F)c(Cl)c3)c(N3CC[C@@H](F)C3)cc21` [Example 235], the results for the IC50 in assay [1] (setting [3]) and in assay [2] (setting [4]) were 3.9 nM and 4.4 nM, respectively.
On the same counts, the results for `Cn1c(Nc2c(Cl)ccc(CNC(=O)C(C)(C)C(F)(F)F)c2Cl)nc2cc(C(=O)Nc3ccc(F)c(Cl)c3)c(N3CC[C@@H](F)C3)cc21` [Example 236] are 3.3 nM and 2 nM.
On the same counts, the results for `Cn1c(Nc2c(Cl)ccc(CNC(=O)C(C)(C)F)c2Cl)nc2cc(C(=O)Nc3ccc(OC(F)(F)F)cc3)c(N3CCC(C(F)(F)F)CC3)cc21` [Example 237] are 1.8 nM and below 1 nM.
On to `Cn1c(Nc2c(Cl)ccc(CNC(=O)C(C)(C)C(F)(F)F)c2Cl)nc2cc(C(=O)Nc3ccc(OC(F)(F)F)cc3)c(N3CCC(C(F)(F)F)CC3)cc21` [Example 238], for which the IC50 in assay [1] (setting [3]) was 2.2 nM; in assay [2] (setting [4]), 2 nM.
The matching figures for `Cn1c(Nc2c(Cl)ccc(CNC(=O)C(C)(C)F)c2Cl)nc2cc(C(=O)Nc3ccc(OC(F)(F)F)cc3)c(N3CC[C@@H](F)C3)cc21` [Example 239]: 3.5 nM and 5 nM.
On the same counts, the results for `Cn1c(Nc2c(Cl)ccc(CNC(=O)C(C)(C)C(F)(F)F)c2Cl)nc2cc(C(=O)Nc3ccc(OC(F)(F)F)cc3)c(N3CC[C@@H](F)C3)cc21` [Example 240] are 4.9 nM and 2 nM.
On the same counts, the results for `Cn1c(Nc2c(Cl)ccc(CNC(=O)C(C)(C)C)c2Cl)nc2cc(C(=O)Nc3ccc(OC(F)(F)F)cc3)c(N3CC[C@@H](F)C3)cc21` [Example 241] are 3.5 nM and below 1 nM.
Regarding `Cn1c(Nc2c(Cl)ccc(CNC(=O)C(C)(C)F)c2Cl)nc2cc(C(=O)Nc3cccc(C(F)(F)F)n3)c(N3CCC(C(F)(F)F)CC3)cc21` [Example 242], the IC50 in assay [1] (setting [3]) was found to be 1.7 nM; in assay [2] (setting [4]), 5 nM.
The matching figures for `Cn1c(Nc2c(Cl)ccc(CNC(=O)[C@@](C)(O)C(F)(F)F)c2Cl)nc2cc(C(=O)Nc3cccc(C(F)(F)F)n3)c(N3CCC(C(F)(F)F)CC3)cc21` [Example 243]: 2.9 nM and 4.5 nM.
The matching figures for `Cn1c(Nc2c(Cl)ccc(CNC(=O)[C@](C)(O)C(F)(F)F)c2Cl)nc2cc(C(=O)Nc3cccc(C(F)(F)F)n3)c(N3CCC(C(F)(F)F)CC3)cc21` [Example 244]: 4.2 nM and 27 nM.
On the same counts, the results for `Cn1c(Nc2c(Cl)ccc(CNC(=O)C(C)(C)C)c2Cl)nc2cc(C(=O)Nc3cccc(C(F)(F)F)n3)c(N3CC[C@@H](F)C3)cc21` [Example 245] are 3.8 nM and 2.4 nM.
For `Cn1c(Nc2c(Cl)ccc(CNC(=O)C(C)(C)C)c2Cl)nc2cc(C(=O)Nc3ccc(F)c(Cl)c3)c(N3CC[C@@H](F)C3)cc21` [Example 246], the half-maximal inhibitory concentration (IC50) in assay [1] (setting [3]) is 2.9 nM; in assay [2] (setting [4]) it was 1.5 nM.
On the same counts, the results for `Cn1c(Nc2c(Cl)ccc(CNC(=O)[C@@](C)(O)C(F)(F)F)c2Cl)nc2cc(C(=O)Nc3ccc(F)c(Cl)c3)c(N3CC[C@@H](F)C3)cc21` [Example 247] are 3 nM and 3 nM.
On the same counts, the results for `Cn1c(Nc2c(Cl)ccc(CNC(=O)[C@](C)(O)C(F)(F)F)c2Cl)nc2cc(C(=O)Nc3ccc(F)c(Cl)c3)c(N3CC[C@@H](F)C3)cc21` [Example 248] are 6.7 nM and 6 nM.
As for `Cn1c(Nc2c(Cl)ccc(CNC(=O)C(C)(C)F)c2Cl)nc2cc(C(=O)N[C@H]3CC[C@H](C(F)(F)F)CC3)c(N3CCC(C(F)(F)F)CC3)cc21` [Example 249], the IC50 is 4.2 nM in assay [1] (setting [3]) and 6 nM in assay [2] (setting [4]).
On the same counts, the results for `Cn1c(Nc2c(Cl)ccc(CNC(=O)C(C)(C)C(F)(F)F)c2Cl)nc2cc(C(=O)N[C@H]3CC[C@H](C(F)(F)F)CC3)c(N3CCC(C(F)(F)F)CC3)cc21` [Example 250] are 1.7 nM and 1 nM.
On the same counts, the results for `Cn1c(Nc2c(Cl)ccc(CNC(=O)[C@@](C)(O)C(F)(F)F)c2Cl)nc2cc(C(=O)N[C@H]3CC[C@H](C(F)(F)F)CC3)c(N3CCC(C(F)(F)F)CC3)cc21` [Example 251] are 3.9 nM and 1 nM.
On the same counts, the results for `Cn1c(Nc2c(Cl)ccc(CNC(=O)[C@](C)(O)C(F)(F)F)c2Cl)nc2cc(C(=O)N[C@H]3CC[C@H](C(F)(F)F)CC3)c(N3CCC(C(F)(F)F)CC3)cc21` [Example 252] are 2.9 nM and 1.4 nM.
`Cn1c(Nc2c(Cl)ccc(CNC(=O)C(C)(C)F)c2Cl)nc2cc(C(=O)N[C@H]3CC[C@@H](C(F)(F)F)CC3)c(N3CCC(C(F)(F)F)CC3)cc21` [Example 253]: the IC50 in assay [1] (setting [3]) is 5.7 nM; in assay [2] (setting [4]), 2.4 nM.
For `Cn1c(Nc2c(Cl)ccc(CNC(=O)C(C)(C)C(F)(F)F)c2Cl)nc2cc(C(=O)N[C@H]3CC[C@@H](C(F)(F)F)CC3)c(N3CCC(C(F)(F)F)CC3)cc21` [Example 254], the IC50 in assay [1] (setting [3]) came out at 3.1 nM; in assay [2] (setting [4]) it was 1 nM.
The matching figures for `Cn1c(Nc2c(Cl)ccc(CNC(=O)[C@](C)(O)C(F)(F)F)c2Cl)nc2cc(C(=O)N[C@H]3CC[C@@H](C(F)(F)F)CC3)c(N3CCC(C(F)(F)F)CC3)cc21` [Example 255]: 4.3 nM and 4 nM.
Regarding `Cn1c(Nc2c(Cl)ccc(CNC(=O)C(C)(C)F)c2Cl)nc2cc(C(=O)NC3CC(F)(F)C3)c(N3CCC(C(F)(F)F)CC3)cc21` [Example 256], the IC50 in assay [1] (setting [3]) came to 3.9 nM; in assay [2] (setting [4]), 1 nM.
The matching figures for `Cn1c(Nc2c(Cl)ccc(CNC(=O)C(C)(C)C(F)(F)F)c2Cl)nc2cc(C(=O)NC3CC(F)(F)C3)c(N3CCC(C(F)(F)F)CC3)cc21` [Example 257]: 1.9 nM and 3.5 nM.
The matching figures for `Cn1c(Nc2c(Cl)ccc(CNC(=O)[C@@](C)(O)C(F)(F)F)c2Cl)nc2cc(C(=O)NC3CC(F)(F)C3)c(N3CCC(C(F)(F)F)CC3)cc21` [Example 258]: 2.2 nM and 4 nM.
On to `Cn1c(Nc2c(Cl)ccc(CNC(=O)[C@](C)(O)C(F)(F)F)c2Cl)nc2cc(C(=O)NC3CC(F)(F)C3)c(N3CCC(C(F)(F)F)CC3)cc21` [Example 259], for which the IC50 in assay [1] (setting [3]) came out at 4.1 nM; in assay [2] (setting [4]), 2 nM.
With `Cn1c(Nc2c(Cl)ccc(CNC(=O)C(C)(C)F)c2Cl)nc2cc(C(=O)NCCC(F)(F)F)c(N3CCC(C(F)(F)F)CC3)cc21` [Example 260], the IC50 was 4 nM in assay [1] (setting [3]) and 2 nM in assay [2] (setting [4]).
The matching figures for `Cn1c(Nc2c(Cl)ccc(CNC(=O)C(C)(C)C(F)(F)F)c2Cl)nc2cc(C(=O)NCCC(F)(F)F)c(N3CCC(C(F)(F)F)CC3)cc21` [Example 261]: 2.9 nM and 1.6 nM.
For `Cn1c(Nc2cc(CNC(=O)C(C)(C)C)ccc2Cl)nc2cc(C(=O)Nc3ccc(Br)cc3)c(OCC(F)F)cc21` [[drawing 48] of WO 2010/100249, reference compound], the values for the IC50 in assay [1] (setting [5]) and in assay [2] (setting [6]) were 3 nM and 10 nM, respectively.
The matching figures for `Cn1c(Nc2cc(CNC(=O)C(C)(C)C)ccc2Cl)nc2cc(C(=O)NCC3CC3)c(OCC(F)F)cc21` [[drawing 52] of WO 2010/100249, reference compound]: 2 nM and above 200 nM.
